Source: patent publication US6399590B2, “Phosphoglycolipid and methods for its use” (Corixa Corporation, priority 1998, dated 2002)

Tests used:
[1] = test system: IL-8 secretion by THP-1 cells; experiment: IL-8 secretion in THP-1 cells (ELISA); assay type: cell-based, human; conditions: any concentration between 1 ng/ml and 10 μg/ml; supernatants at 4, 16 and 24 hours
Protocol: (§1) The human myelomonocytic cell line THP-1 is commonly used for the analysis of the proinflammatory status of various compounds. THP-1 cells (American Type Culture Collections Cat. No. 202-TIB) were grown in RPMI 1640, 10% heat inactivated fetal bovine serum (FBS) and […] β-mercaptoethanol to a cell density of between 4×10^5/ml and 7×10^5/ml. Cells were removed from culture and resuspended at 1×10^6 cells/ml in RPMI 1640 containing 5% fetal bovine serum. Resuspended cells were then pipetted into sterile, disposable polystyrene 150×25 mm petri dishes and treated with the natural maturational agent 1α, 25-dihyroxyvitamin D3 at 1×10^−7 M between 24 and 72 hours depending on the degree of maturation desired. These maturationally “pretreated” cells were then washed 3× in RPMI 1640 containing more than 2% but less than 10% fetal bovine serum. After the third wash cells were resuspended in RPMI 1640 containing 5% FBS plus 2% human AB sera (Irvine Scientific) at 5×10^5 cells/ml and transferred at 2 ml per well in a tissue culture grade, flat bottom polystyrene 24 well plate. […] Cytokine concentration in the THP-1 culture supernatants were quantified using standard human cytokine ELISA kits from R&D Laboratories. […]

[2] = test system: TNF-α secretion by THP-1 cells; experiment: TNF-α secretion in THP-1 cells (ELISA); assay type: cell-based, human; conditions: any concentration between 1 ng/ml and 10 μg/ml; supernatants at 4, 16 and 24 hours
Protocol: as §1

[3] = test system: rabbit model of regional myocardial ischemia; experiment: Infarct size in rabbits, 30 min coronary occlusion and 3 h reperfusion; assay type: in vivo, New Zealand white rabbits
Protocol: Male New Zealand white rabbits weighing 2.5-3.5 kg were injected with vehicle or L34 24 h before the experiment. L34 was formulated in vehicle composed of 40% propylene glycol, 10% ethanol in water. For the experiment, animals were intramuscularly anesthetized with ketamine (35 mg/kg) and xylazine (5 mg/kg). Tracheotomy was performed and the animals intubated with a cuffed endotracheal tube (Portex, 4.0 mm internal diameter) and then mechanically ventilated with room air on a positive pressure respirator Q Industries, Mobile, Ala.). Ventilatory rate was 27-35 breaths per min, and tidal volume was approximately 10-17 ml. […] The EKG was recorded throughout the experiment via lead II of the standard elctrocardiogram. […]
At the end of each experiment, the ligature around the large marginal branch of the circumflex artery was retightened to reocclude the artery and approximately 4 ml of 10% Evans blue dye was injected into the jugular vein until the eyes turned blue. […] The area at risk was determined by negative staining and calculated as a percentage of the portion of left ventricle containing the risk area (AAR/LV %) and infarct size as a percentage of area at risk (IS/AAR %). […] Regions of infarcted tissue and the risk zone were determined by computer morphometry using Bioquant imaging software and the percentage of infarcted area and risk area calculated.

[4] = test system: Mongrel dogs, LAD occlusion/reperfusion; experiment: Infarct size in dogs with bolus plus drug infusion; assay type: in vivo, dog; conditions: FIG. 3
Protocol: Mongrel dogs weighing 16-24 kg were randomly assigned to one of four groups: vehicle control; L34 high dose bolus plus infusion; L34 low dose bolus plus infusion and L34 bolus only. Animals in the L34 high dose bolus plus infusion group received an intravenous bolus injection of 70 μg/kg L34 formulated in vehicle (40% propylene glycol and 10% ethanol in water) and diluted in 5% dextrose in water to a final volume of 10 ml immediately followed by 40 μg/kg/h infusion of the drug beginning three hours prior to occlusion. The low dose bolus plus infusion group of dogs were bolus dosed with 35 μg/kg of drug followed immediately thereafter by infusion of drug at a dose of 4.0 μg/kg/h. […]
After stabilization, animals underwent a 60 min period of occlusion. Heart rate and arterial pressures were monitored at baseline, immediately before the sustained occlusion, and at 10 min after the onset of occlusion. […] The severity of ischemia was assessed in all dogs by measurement of RMBF at 10 min after the onset of LAD occlusion.
At the end of 3 h reperfusion the LAD was reoccluded and UNISPERSE® blue pigment (0.25-0.5 ml/kg) was injected into the coronary vasculature via the left atrial catheter to delineate the in vivo boundaries of the occluded LAD bed, and, with animals under deep anesthesia, cardiac arrest was produced by intracardiac injection of KCl. […] RMBF was then quantified using standard methods.

## CCCCCCCCCCCCCCCCCC(=O)O[C@H](CCCCCCCCCCC)CC(=O)N[C@H]1[C@H](OC[C@H]2OC(O)[C@H](NC(=O)C[C@@H](CCCCCCCCCCC)OC(=O)CCCCCCCCCCCCCCC)[C@@H](O)[C@@H]2O)O[C@H](CO)[C@@H](OP(=O)(O)O)[C@@H]1OC(=O)C[C@@H](CCCCCCCCCCC)OC(=O)CCCCCCCCCCCCC (stereo partly drawn) [L34, 2-Deoxy-6-O-[2-deoxy-4-O-phosphono-3-O-[(R)-3-tetradecanoyloxytetradecanoyl]-2-[(R)-3-octadecanoyloxytetradecanoylamino]-β-D-glucopyranosyl]-2-[(R)-3-hexadecanoyloxytetradecanoylamino]-D-glucopyranose]
[1]
  IL-8 secretion: did not induce detectable
[2]
  TNF-α secretion: did not induce detectable
[3]; 35 μg/kg given 24 h before ischemia, FIG. 1
  reduction in infarct size (percentage of area at risk) compared to controls: approximately 70%
[3]; doses of 10 to 35 μg/kg given 24 h before ischemia, FIG. 2
  reduction in infarct size, dose response: > 50%
[4]; 70 μg/kg bolus only, 3 h before occlusion
  infarct size as ratio of area of necrosis (AN) to area at risk (AR): no reduction in infarct size
[4]; bolus (70 or 35 μg/kg) plus infusion (40 or 4.0 μg/kg/h) beginning 3 h prior to occlusion
  infarct size as ratio of area of necrosis (AN) to area at risk (AR): statistically significant reduction in infarct size
